What was measured:
[1] = control samples with OPAE replaced by PBS (no enzyme), non-enzymatic hydrolysis; format: physicochemical; settings: PBS pH 7.0, no enzyme
Method: (§1) Ninety-six well microtiter plates were prepared containing duplicate samples, each sample containing 4-(5-chloro-6-hydroxycoumarinamido)butyl-5-carboxamidofluorescein diacetate (“Compound 11”, 2 mM, 2 μL) in DMSO with phosphate buffered saline (PBS, 200 μL, pH 7.0). To each well was added orange peel acetylesterase (OPAE, Sigma, St. Louis, Mo., 5 μL, 39 U/mL) as a suspension in (NH4)2SO4 (2.5 M) and sodium oxalate (0.1 M). A set of control samples was prepared in which the OPAE was replaced with PBS (no enzyme). […] The plate was read prior to OPAE addition, at time 0, and at 5, 10, 30, 60, and 150 minutes after addition. Each reading was taken at three wavelength pairs using a Molecular Devices fmax fluorescent plate reader: excite 485/emission 530 (to measure fluorescein fluorescence); excite 350/emission 530 (to measure FRET fluorescence); and excite […] (to measure coumarin fluorescence).

[2] = test system: orange peel acetylesterase (OPAE); assay: in vitro hydrolysis with orange peel acetylesterase, fluorescence/FRET plate reading; format: biochemical
Method: as §1
A control set of experiments was preformed as above, but substituting a mixture of equal molar amounts of 5-carboxyfluorescein diacetate (5-CFDA, Calbiochem) and 6-chloro-7-hydroxycoumarin methyl ester. This mixture was non-fluorescent at 530 nm prior to OPAE addition and was fluorescent at 460 nm. […] Furthermore, in this unlinked mixture case, the ratio of 530 nm to 460 nm only changed from 0.13 to 0.7; in contrast to the ratio change for the compound above, from 0.13 to 13.5.

[3] = molecular target: T1, β-glucuronidase (GUS) (Escherichia coli, UniProt P05804); assay: in vitro hydrolysis with β-glucuronidase, fluorimeter excitation and emission spectra; format: biochemical, E. coli
T1 construct: purchased Sigma Chemicals, St. Louis, Mo
T1 sequence (P05804 whole entry): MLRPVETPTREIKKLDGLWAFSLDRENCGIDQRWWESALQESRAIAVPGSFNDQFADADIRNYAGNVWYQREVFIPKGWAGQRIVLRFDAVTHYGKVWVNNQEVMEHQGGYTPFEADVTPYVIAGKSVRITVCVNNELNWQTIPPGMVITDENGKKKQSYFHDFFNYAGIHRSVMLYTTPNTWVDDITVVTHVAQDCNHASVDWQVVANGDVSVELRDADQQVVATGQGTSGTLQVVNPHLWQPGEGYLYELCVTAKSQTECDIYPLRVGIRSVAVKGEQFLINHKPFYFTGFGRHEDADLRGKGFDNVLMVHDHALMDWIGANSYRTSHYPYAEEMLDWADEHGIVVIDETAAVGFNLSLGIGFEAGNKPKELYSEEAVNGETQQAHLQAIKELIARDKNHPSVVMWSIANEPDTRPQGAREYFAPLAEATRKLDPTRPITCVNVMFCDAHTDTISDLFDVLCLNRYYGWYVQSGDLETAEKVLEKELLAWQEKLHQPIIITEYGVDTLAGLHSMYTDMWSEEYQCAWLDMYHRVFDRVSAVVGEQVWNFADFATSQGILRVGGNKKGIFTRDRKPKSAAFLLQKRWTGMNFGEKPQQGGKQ
Method: A fluorimetery cuvette was prepared by adding 3 μL of 0.5 mM 7CC-FDG in DMSO (Compound F), to 3 mL of 50 mM Hepes buffer, pH 7.0, with 1 mM each CaCl2 and MgSO4. Fluorescent excitation and emission spectra of the sample were recorded using a Jobin-Yvon-SPEX Instruments Fluormax-2 fluorimeter under the following conditions: excitation at 300-500 nm with emission recorded at 515 or 530 nm (FIG. 4, scan A and B respectively); excitation at 350 nm and emission recorded at 425-650 nm (FIG. 4, scan C); excitation at 406 nm and emission recorded at 425-530 nm (FIG. 4, scan D); and excitation at 488 nm with emission recorded at 500-650 nm (FIG. 4, scan E). […] The ratio computed is the emission at 450 nm when the exciting light was of 350 nm or 406 nm divided by the emission at 515 nm when the exciting light was of 488 nm.

| ratio of 530 nm to 460 nm emission, end of change ([2]; after OPAE hydrolysis (0.94 U/mL, read up to 150 minutes), excitation 350 nm, PBS pH 7.0) | change of coumarin fluorescence (460 nm) after OPAE addition ([2]; in the presence of OPAE) | ratio of 530 nm to 460 nm emission, start of change ([2]; prior to OPAE hydrolysis, excitation 350 nm, PBS pH 7.0) | SMILES | non-enzymatic hydrolysis [1] | cleavage of the substrate by β-glucuronidase ([3]; 72 Units GUS, 50 mM Hepes pH 7.0) | dynamic range of emission ratio 450 nm/515 nm ([3]; excitation at 350 nm and 488 nm, respectively) | dynamic range of emission ratio 450/515 ([3]; excitation at 406 nm and 488 nm) | quenching of the coumarin moiety fluorescence in the completely cleaved product ([3]; scan D (excitation 406 nm), 60 min. versus 0 min. time point) |
| --- | --- | --- | --- | --- | --- | --- | --- | --- |
| 13.5 | decrease in fluorescence | 0.13 | CC(=O)Oc1ccc2c(c1)Oc1cc(OC(C)=O)ccc1C21OC(=O)c2cc(C(=O)NCCCCNC(=O)c3cc4c(Cl)c(O)ccc4oc3=O)ccc21 [Compound 11, 4-(5-chloro-6-hydroxycoumarinamido)butyl-5-carboxamidofluorescein diacetate] | very low rates of non-enzymatic hydrolysis | – | – | – | – |
| – | – | – | O=C(O)CCC(NC(=O)Nc1ccc2c(c1)C(=O)OC21c2ccc(OC3OC(C(=O)O)C(O)C(O)C3O)cc2Oc2cc(OC3OC(C(=O)O)C(O)C(O)C3O)ccc21)C(=O)NCCCCNC(=O)c1cc2cc(Cl)c(O)cc2oc1=O (centres unmarked) [Compound 7CC-FDG] | – | can be cleaved by β-glucuronidase readily | about 23 fold | about 50 fold | more than 50% |
